# Reference: patent US6399086B1, “Pharmaceutical preparations for the controlled release of beta-lactam antibiotics” (Yissum Research Development Company of the Hebrew …, priority 1997, dated 2002)
# Key:
# [1] = tested on: Haemophilus influenza; conditions: cited from earlier work
# [2] = tested on: Staphylococcus aureus; conditions: cited from earlier work
# [3] = tested on: Enterococcus faecalis; conditions: cited from earlier work
# [4] = tested on: Streptococci pneumoniae; conditions: cited from earlier work
# [5] = tested on: Streptococci group A; conditions: cited from earlier work
# [6] = Stability of active agent in the dissolution medium; type: physicochemical; conditions: 37° C.
# Protocol: Determination of Stability of active Agent in the Dissolution Medium
# Following 1, 2, 4, 6, 8 and 24 hrs the absorption profile of the drug between 200 nm and 300 nm was determined and compared with the absorption profile of the solutions before storage.
structure (smiles),measurement,setting,value
"CC1(C)S[C@@H]2[C@H](NC(=O)[C@H](N)c3ccc(O)cc3)C(=O)N2[C@H]1C(=O)O [Amoxicillin, amoxicillin trihydrate]",MIC,[1],0.25 µg/mL
same,MIC,[2],0.1 µg/mL
same,MIC,[3],0.5 µg/mL
same,MIC,[4],0.02 µg/mL
same,MIC,[5],0.01 µg/mL
same,Stability in solution,"[6]; pH=1.2, after 1hr",deterioration occurred
same,Stability in solution,"[6]; pH=2, after 6 hrs",stable
same,Stability in solution,"[6]; pH=6.8, after 24 hrs",stable
same,Stability in solution,"[6]; pH=7.4, after 24 hrs",stable
